In patent US6395906B1, “Intermediates to pesticidal 1-arylpyrazoles” (Rhone-Poulenc Inc., priority 1995, dated 2002):

Experiments:
Format in all cases: in vivo
[1] = system: tobacco budworm (Heliothis virescens); assay: Tobacco budworm (TBW) treated cotton leaf test; conditions: cotton leaves, 100 ppm; second instar larvae, five days
In short: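 Leaf-dip test: cotton leaves wetted to runoff with 100 ppm compound in DMF/acetone/emulsifier/water, dried, then offered to ten second-instar Heliothis virescens larvae in closed cups with moist wicks. Mortality scored after five days; larvae unable to move one body length on prodding counted dead; solvent-emulsifier control run alongside.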

[2] = system: Mexican bean beetle (Epilachna varivestis); assay: Mexican bean beetle (MBB) treated bean leaf test; conditions: bean leaves, 100 or 500 ppm; second instar larvae, five days
Experimental: (§1) For the tick, aphids, souther armyworm, tobacco budworm, house fly, Mexican bean beetle, American cockroach, cat flea, souther corn rootworm, western corn rootworm, black cutworm, and southern root-knot nematode, a solution or suspension was prepared by adding the test compound to a solution of dimethylformamide, acetone, emulsifiers which are alkylaryl polyether alcohols organic sulfonates, and water. The result was a 100 or 500 ppm concentration of the test compound.
Southern armyworm (SAW), Mexican bean beetle (MBB): Bean leaves were wet to runoff with the 100 or 500 ppm test compound formulation. As an untreated control, a water-acetone-DMF-emulsifier solution containing no test compound was also applied wet to runoff to bean leaves. Five or six randomly selected second instar southern armyworn larvae or Mexican bean bettle larvae were introduced into each plastic container with the dry treated leaves. The container was closed and held for five days. Larvae which were unable to move the length of the body, even upon stimulation by prodding, were considered dead.

[3] = system: western corn rootworm (Diabrotica virgifera virgifera); assay: Western corn rootworm (WCRW) soil test; conditions: soil concentration 0.15 or 0.5 ppm; neonate larvae, mortality six days after infestation
In short: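 Test formulation applied to dry sandy loam soil in a jar for 0.15 or 0.5 ppm soil concentration; solvent-only untreated control. After 24 h covered incubation, four germinated corn seedlings and ten neonate larvae added. Mortality assessed 6 days after infestation by Berlese funnel extraction.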

[4] = system: black cutworm (Agrotis ipsilon); assay: Black cutworm (BCW) soil test; conditions: soil concentration 2.5, 5, 6.75 or 10 ppm; mortality eight days after infestation
Experimental: as §1
For southern corn rootworm and black cutworm tests, the water-acetone-DMF-emulsifier solution was adjusted for a treatment rate of 2.5, 5, 6.75 or 10 ppm.
Southern corn rootworm (SCRW), Black cutworm (BCW): Corn seeds were placed in a glass jar and covered with dry sandy loam soil. The 500 ppm test formulation was applied for a soil concentration of 2.5, 5, 6.75 or 10 ppm. As an untreated control, an aliquot of a water-acetone-DMF-emulsifier solution containing no test compound was applied in a similar manner. After incubating covered for 24 hours, the soil was mixed and inoculated with approximately 25 southern corn rootworm eggs. Following an additional 48 hours, two late second to early third instar black cutworms were placed in the jar with a portion of insect diet. Eight days after infestation, mortality was assessed visually for cutworm and by Berlese funnel extraction for rootworm.

[5] = system: black cutworm (Agrotis ipsilon); assay: Black cutworm systemic test (BCW-Sys); conditions: soil drench 10.0 ppm, corn seedling clipped ten days after treatment; mortality 4 days after infestation
Source text: For cotton aphid systemic tests and black cutwork—systemic tests, the water-acetone-DMF-emulsifier solution was adjusted for a treatment rate of 10.0 ppm soil concentration.
Black cutworm—systemic test (BCW-Sys): Corn seeds were placed on top of the soil surface in pots containing moist soil. The test compound solution was applied as a drench to the top of the soil and seeds for a treatment rate equivalent to 10.0 ppm soil concentration. As an untreated control, an aliquot of water-acetone-DMF-emulsifier solution containing no test compound was applied in a similar manner. The soil surface and seeds were covered with moist soil. The pots were held in the greenhouse for the duration of the bioassay. Ten days after treatment, the corn seedling was clipped and placed in a plastic cup with 2 late second to early third instar black cutworm larvae. Mortality was assessed visually 4 days after infestation.

[6] = system: greenbug aphid (Schizaphis graminum); assay: Greenbug aphid systemic test (GA-Sys); conditions: soil drench 10 or 25 ppm, sorghum; aphid control rated one and three days after infestation
Source text: For the greenbug aphid systemic test, the water-acetone-DMF-emulsifier solution was adjusted for a treatment rate of 10 or 25 ppm soil concentration.
Greenburg aphid—systemic test (GA-Sys): Sorghum seeds were placed on top of the soil surface in pots containing moist soil. The test compound solution was applied as a drench to the top of the soil and seeds for a treatment rate equivalent to 10 or 25 ppm soil concentration. As an untreated control, an aliquot of a water-acetone-DMF-emulsifier solution containing no test compound was applied in a similar manner. The soil surface and seeds were covered with moist soil. The pots were held in the greenhouse for the duration of the bioassay. When the sorghum seeds germinated, greenbug aphids were sprinkled evenly over the sorghum pots to about 50 aphids per pot. The plants were rated for aphid control one and three days after infestation.

[7] = system: buckthorn aphid (Aphis nasturtii); assay: Buckthorn aphid (BA) foliar spray test; conditions: nasturtium plants wet to runoff, 100 or 500 ppm; dead aphids counted after one day
Experimental: as §1
Buckthorn aphid (BA) or cotton aphid (CA): Adult and nymphal stages of buckthorn or cotton aphid were reared on potted dwarf nasturtium or cotton plants, respectively. Plants infested with 100-150 aphids were wet to runoff with the 100 or 500 ppm test compound formulation. As an untreated control, a water-acetone-DMF-emulsifier solution containing no test compound was also applied to runoff to infested plants. The treated plants were stored for one day for buckthorn aphid and three days for cotton aphid, after which the dead aphids were counted.

[8] = system: American cockroach (Periplaneta americana); assay: American cockroach (ACR) treated food pellet test; conditions: food pellets with 500 ppm formulation; nymphs, contact and feeding mortality 1 and 5 days after infestation
In short: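 Pet-food pellets treated with 500 ppm compound in DMF/acetone/emulsifier/water; solvent-only blank as control. Nymphs added after 48 h; contact and feeding mortality scored 1 and 5 days post-infestation.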

[9] = system: dog tick (Rhipicephalus sanguineus); assay: Dog tick (DT) treated filter paper contact test; conditions: 500 ppm, adult ticks, contact mortality 14 days after infestation
Experimental: as §1
(§2) Cat flea (CF), dog tick (DT): Filter papers were treated with an aliquot of the 500 ppm test formulation. As an untreated control, an aliquot of a water-acetone-DMF-emulsifier solution containing no test compound was applied in a similar manner. When dry, 2 treated filters were placed in a vial for the flea and another 2 filters in a vial for the tick. Five adult fleas were added to one vial and 5 adult ticks to the second vial. Contact mortality was assessed 1 day after infestation for the flea and 14 days after infestation for the tick.

[10] = system: cat flea (Ctenocephalides felis); assay: Cat flea (CF) treated filter paper contact test; conditions: 500 ppm, adult fleas, contact mortality 1 day after infestation
Experimental: as §1, §2

With `CC(=O)c1c([S+]([O-])C(F)(F)F)c(C#N)nn1-c1c(Cl)cc(C(F)(F)F)cc1Cl` (stereo not shown) [Compound 10, 5-Acetyl-3-cyano-1-(2,6-dichloro-4-trifluoromethylphenyl)-4-trifluoromethylsulfinylpyrazole] the TBW [1] was “+ (active against 1 or more insects described above up to 100% mortality. This activity is indicated by a “+”)”, the MBB [2] was “+ (active against 1 or more insects described above up to 100% mortality. This activity is indicated by a “+”)” and the WCRW [3] was “+ (active against 1 or more insects described above up to 100% mortality. This activity is indicated by a “+”)”. For the same compound, the BCW [4] was “+ (active against 1 or more insects described above up to 100% mortality. This activity is indicated by a “+”)”, the BCW-Sys [5] was “+ (active against 1 or more insects described above up to 100% mortality. This activity is indicated by a “+”)” and the GA-Sys [6] was “+ (active against 1 or more insects described above up to 100% mortality. This activity is indicated by a “+”)”.

In the case of `CC(=O)c1c(S(=O)(=O)C(F)(F)F)c(C#N)nn1-c1c(Cl)cc(C(F)(F)F)cc1Cl` [Compound 1, 5-Acetyl-3-cyano-1-(2,6-dichloro-4-trifluoromethylphenyl)-4-trifluoromethylsulfonylpyrazole], the BA [7] was “+ (active against 1 or more insects described above up to 100% mortality. This activity is indicated by a “+”)”, the TBW [1] was “+ (active against 1 or more insects described above up to 100% mortality. This activity is indicated by a “+”)” and the MBB [2] was “+ (active against 1 or more insects described above up to 100% mortality. This activity is indicated by a “+”)”.

With `CCOC(OCC)c1c(SC(F)(F)F)c(C#N)nn1-c1c(Cl)cc(C(F)(F)F)cc1Cl` [Compound 18, 3-Cyano-1-(2,6-dichloro-4-trifluoromethylphenyl)-5-diethoxymethyl-4-trifluoromethylthiopyrazole] the ACR [8] was “+ (active against 1 or more insects described above up to 100% mortality. This activity is indicated by a “+”)”, the DT [9] was “+ (active against 1 or more insects described above up to 100% mortality. This activity is indicated by a “+”)” and the CF [10] was “+ (active against 1 or more insects described above up to 100% mortality. This activity is indicated by a “+”)”. The WCRW [3] was “+ (active against 1 or more insects described above up to 100% mortality. This activity is indicated by a “+”)”.
